These results are taken from ChEMBL document CHEMBL1833878, “Cyclodepsipeptides, sesquiterpenoids, and other cytotoxic metabolites from the filamentous fungus Trichothecium sp. (MSX 51320)” (J Nat Prod, 2011).

Each structure is given as a SMILES string. Values after ≈ are worked out from the molar mass of the structure shown. *1 amine or outer side, *2 acyl side, *3 side chain or, on linkers, in order; H or OH if unused. Where a SMILES comes first, the peptide text is derived from it. [ ]: non-standard residue; d: D form. X1 = CC(C)(O)[C@H](O[*:1])C(=O)[*:2]; dNMeF = CN[C@H](Cc1ccccc1)C(=O)O; Hica(2S) = CC(C)C[C@H](O)C(=O)O; NMeL = CN[C@@H](CC(C)C)C(=O)O; Hiv = CC(C)[C@H](O)C(=O)O; NMeA = CN[C@@H](C)C(=O)O

By IC50 is commonly meant the concentration at which inhibition is half-maximal. The term EC50 denotes the midpoint of the concentration-response curve. A word on the MIC: it is the lowest concentration found to suppress growth.

Assay [1] in a line: Cytotoxicity against human HTB-177 cells. The class given is functional, cell-based.
Another assay concerns NCI-H460. In words: Cytotoxicity against human NCI-H460 cells. It is filed as functional, cell-based.
The next assay deals with SF-268. The experiment in a line: Cytotoxicity against human SF268 cells. It is filed as functional, cell-based.
In another assay the test system is MCF7. In words: Cytotoxicity against human MCF7 cells. The class given is functional, cell-based.
Assay [2] has as its system Staphylococcus epidermidis. The experiment in a line: Antibacterial activity against Staphylococcus epidermidis. The class given is functional.
The next assay has as its system Enterococcus durans. In words: Antibacterial activity against Enterococcus durans. The class given is functional.
Assay [3] in a line: Cytotoxicity against human HTB-129 cells. It is filed as functional, cell-based.
Another assay relates to HT-29. The experiment in a line: Cytotoxicity against human HT-29 cells. The class given is functional, cell-based.
Another assay concerns MDA-MB-435. The experiment in a line: Cytotoxicity against human MDA-MB-435 cells. It is filed as functional, cell-based.
A short description of assay [4]: Cytotoxicity against human HTB-38 cells. The class given is functional, cell-based.

Regarding `C/C=C\C(=O)O[C@@H]1CC2O[C@@H]3C=C(C)[C@@H](O)C4OCC2(O)[C@@]1(C)[C@]43C` (some centres undefined), the half-maximal inhibitory concentration (IC50) (in assay [1]; in the assay on NCI-H460; with SF-268; in the assay with MCF7) was more than 10 µM each time.
In the case of `CC(C)C[C@@H]1OC(=O)[C@H](C)NC(=O)[C@H](C(C)(C)O)OC(=O)[C@H](C)N(C)C(=O)[C@@H](C)NC(=O)[C@@H](Cc2ccccc2)N(C)C1=O` [GUANGOMIDE A] (cyclo(A[Hica(2S)][dNMeF][dA][NMeA][X1])), the EC50 with NCI-H460, in the assay with SF-268 and in the assay on MCF7 was 15 µM throughout. Also, the MIC (in [2]; against Enterococcus durans) was 100 µg/mL (≈ 162 µM) each time.
As to `CC(C)C[C@@H]1OC(=O)[C@H](C(C)C)OC(=O)[C@H](CO)NC(=O)[C@H](C(C)C)NC(=O)[C@H](CC(C)C)N(C)C(=O)[C@H](Cc2ccccc2)NC1=O` [TRICHODEPSIPEPTIDE B] (cyclo(F[NMeL]VS[Hiv][Hica(2S)])), the IC50 (in [3]; in [1]; in the assay with NCI-H460; in the assay on HT-29; in the assay on MDA-MB-435; with SF-268) was more than 10 µM in each case. The IC50 (in assay [4]; in the assay on MCF7) was more than 10 µM throughout.
Take `CC(C)C[C@@H]1NC(=O)[C@H](CC(C)C)N(C)C(=O)[C@H](Cc2ccccc2)NC(=O)[C@H](CC(C)C)OC(=O)[C@H](C(C)C)OC(=O)[C@H](CO)NC1=O` [TRICHODEPSIPEPTIDE] (cyclo(F[NMeL]LS[Hiv][Hica(2S)])): the IC50 (in [3]; in assay [1]; in the assay on NCI-H460; in the assay with HT-29; with MDA-MB-435; with SF-268) was more than 10 µM each time. The IC50 (in assay [4]; with MCF7) was more than 10 µM throughout.
Consider `COC(=O)[C@@H]1O[C@@H](O)C(=O)[C@]2(C(O)/C=C(C)/C=C/C=C(\C)CCC=C(C)C)O[C@H]12` (some centres undefined) [TRICHOTHOSPORON A], for which the IC50 (in [1]; in the assay with NCI-H460; in the assay on SF-268; with MCF7) was more than 10 µM in each case.
